Experimental data: EP0089154A2, “Ethanolamine derivatives, their preparation and use in pharmaceutical compositions” (BEECHAM GROUP PLC, priority 1982, dated 1983)
Counter-ions that a name gives are not always drawn. Like-named read-outs stand apart in the source and are kept apart here.

Key:
[1] = tested on: Female CFLP mice; assay: Anti-hyperglycaemic activity: subcutaneous glucose load in fasted mice; format: in vivo; settings: Mus musculus, po, read-out: % REDUCTION IN AREA UNDER BLOOD GLUCOSE CURVE; for inhibition in vivo at 12.5 µmol/kg: dose 12.5 μmol/kg orally
Description: Female CFLP mice, weighing approximately 25 g, were fasted for 24 hours prior to the study. The compounds under study were administered orally as an aqueous solution to each of 6 mice. 30 Minutes later a blood sample (10 pl) was obtained from the tail for the analysis of blood glucose. Immediately after taking this blood sample, glucose (1 g/kg body weight) was administered subcutaneously to each mouse. 6 Mice were given water as a control. Blood samples were then obtained from each mouse at 30 minute intervals for 120 minutes.
Compounds that produced a significant (P 0.05) reduction of blood glucose, compared with control mice given water, at any time interval, were considered active. The area under the blood glucose curve over the 2 hour period after the administration of the glucose was calculated for each compound and compared with the value for control animals.

[2] = tested on: Rat hearts; assay: Cardiac activity: Langendorff perfused rat heart
Description: Rat hearts were perfused by the Langendorff procedure. Hearts were dissected free within 30 seconds of death and reverse perfused via the aorta and coronary vessels with Krebs-Ringer bicarbonate solution (pH 7.4, 37°C) gassed with 95% oxygen:5% carbon dioxide at a flow rate between 8-12 cm^3/minute. Responses were observed after injection of drug dissolved in isotonic saline into the perfusion media.
Results are expressed as a percentage of the maximum response due to salbutamol.

[3] = tested on: rat ear; assay: Anti-inflammatory activity: croton oil induced rat ear inflammation; format: in vivo; settings: 1.00 mg/rat ear, topical in 1% croton oil in tetrahydrofuran, ear weight after 6 hours
Description: The method used is based on that described by G.Tonelli et al (Endocrinology, 77, 625-634, 1965). An inflammation is induced in the rat ear by the application of 50 pl of a 1% solution of croton oil in tetrahydrofuran, test compounds being dissolved in the irritant vehicle. After 6 hours the inflammation is assessed by killing the animals and weighing the ears. Topical anti-inflammatory activity of a compound is generally considered to be shown when a significant (5% level) reduction in ear weight is seen compared to non- drug treated control.

[4] = dose 2.5 μmol/kg orally, mice fasted 24 hours, glucose 1 g/kg subcutaneously, 2 hour period, compared with control given water
[5] = 30 µg added to perfusate, perfused rat heart, read-out: HEART RATE
[6] = 30 µg added to perfusate, perfused rat heart, read-out: HEART TENSION
[7] = mice fasted 24 hours, glucose 1 g/kg subcutaneously, 2 hour period, compared with control given water
[8] = dose 1.0 μmol/kg orally, mice fasted 24 hours, glucose 1 g/kg subcutaneously, 2 hour period, compared with control given water

COCCSc1ccc(CC(C)NCC(O)c2cccc(Cl)c2)cc1 (centres unmarked) [Example 21, N-[2-(4-(2-Methoxyethylthio)phenyl)-1-methylethyl]-2-hydroxy-2-(3-chlorophenyl)ethanamine hydrochloride]
inhibition in vivo at 1 µmol/kg ([1]; 2 h): 31%

CSc1ccc(C[C@@H](C)NC[C@H](O)c2cccc(Cl)c2)cc1 [Example 19, (RR, SS)-N-[2-(4-Methylthiophenyl)-1-methylethyl]-2-luydroxy-1-(3-chlorophenyl) ethanamine hydrochloride]
inhibition in vivo at 2.5 µmol/kg ([1]; 2 h): 26%

CC(Cc1ccc(S(=O)(=O)C(C)(C)C)cc1)NCC(O)c1cccc(Cl)c1 (centres unmarked) [Example 15, N-(2-(4-t-Butylsulphonylphenyl)-1-methylethyl]-2-hydroxy-2-(3-chlorophenyl)ethanamine hydrobromide]
inhibition in vivo at 100 µmol/kg ([1]; 2 h): 48%

CC(Cc1ccc(SCCOc2ccccc2)cc1)NCC(O)c1cccc(Cl)c1 (centres unmarked) [Example 22, N-[2-(4-(2-Phenoxyethylthio)phenyl)-1-methyletlzyl]-2-hydroxy-2-(3-chlorophenyl) ethanamine]
inhibition in vivo at 2.5 µmol/kg [1, 4]: 23%

CSc1ccc(CC(C)NCC(O)c2cccc(Cl)c2)cc1 (centres unmarked) [Example 2, N-[2-(4-Methylthiophenyl)-1-methylethyl]-2-hydroxy-2-(3-chlorophenyl)ethanamine]
Emax at 30 µg ([2]; Rattus norvegicus, read-out: HEART RATE): 23% | Emax at 30 µg ([2]; Rattus norvegicus, read-out: HEART TENSION): 25% | inhibition in vivo at 1 µmol/kg ([1]; 2 h): 8%

CC(Cc1ccc(S(C)(=O)=O)cc1)NCC(O)c1cccc(C(F)(F)F)c1 (centres unmarked) [Example 7, N-[2-(4-Methylsulphonylphenyl)-1-methylethyl]-2-hydroxy-2-(3-trifluoromethylphenyl)ethanamine]
Emax at 30 µg [2, 5]: 25% | Emax at 30 µg [2, 6]: 0% | inhibition in vivo at 12.5 µmol/kg [1, 7]: 48%

CSc1ccc(C[C@H](C)NC[C@H](O)c2cccc(Cl)c2)cc1 [Example 18]
inhibition in vivo at 5 µmol/kg ([1]; 2 h): 16%

CC(Cc1ccc(CS(C)(=O)=O)cc1)NCC(O)c1cccc(C(F)(F)F)c1 (stereo not drawn) [Example 11, N-[2-(4-Methylsulphonylmethylphenyl)-l-methylethyl] -2-hydroxy-2-(3-trifluoromethylphenyl)ethanamine]
Emax at 30 µg [2, 5]: 67% | Emax at 30 µg [2, 6]: 18%

COC(=O)CCSc1ccc(CC(C)NCC(O)c2cccc(C(F)(F)F)c2)cc1 (centres unmarked) [Example 1, N-[2-(4-(2-Carbomethoxyethylthio)phenyl)-1-methylethyl] 2-hydroxy-2-(3-trifluoromethylphenyl)ethanamine]
Emax at 30 µg [2, 5]: 0% | Emax at 30 µg [2, 6]: 4% | inhibition [3]: 89% | Activity ([3]; active = significant (5% level) reduction in ear weight): Active | inhibition in vivo at 12.5 µmol/kg [1, 7]: 35%

CC(Cc1ccc([S+](C)[O-])cc1)NCC(O)c1cccc(Cl)c1 (centres unmarked) [Example 20, N-[2-(4-Methylsulphinylphenyl)-1-methylethyl]-2-hydroxy-2-(3-chlorophenyl) ethanamine]
inhibition in vivo at 12.5 µmol/kg [1, 7]: 59%

CC(Cc1ccc(SCCSc2ccccc2)cc1)NCC(O)c1cccc(Cl)c1 (centres unmarked) [Example 24, N-[2-(4-(2-Phenylthioethylthio)phenyl)-1-methylethyl]-2-hydroxy-2-(3-chlorophenyl)ethanamine]
inhibition in vivo at 2.5 µmol/kg [1, 4]: 12%

CC(Cc1ccc(S(=O)(=O)CCCO)cc1)NCC(O)c1cccc(C(F)(F)F)c1 (centres unmarked) [Example 9, N-[2-(4-{3-Hyaroxypropylsulphonyl}phenyl)-1-methylethyl] -2-hydroxy-2-(3-trifluoromethylphenyl)-ethanamine]
inhibition in vivo at 12.5 µmol/kg [1, 7]: 52%

CC(Cc1ccc(SC(C)C)cc1)NCC(O)c1ccccc1 (centres unmarked) [Example 17, N-[2-(4-Isopropylthiophenyl)-1-methylethyl]-2-hydroxy-2-phenylethanamine]
inhibition in vivo at 2.5 µmol/kg ([1]; 2 h): 30%

CC(Cc1ccc(SCc2ccccc2)cc1)NCC(O)c1cccc(Cl)c1 (centres unmarked) [Example 4, N-[2-(4-Benzylthiophenyl)-1-methylethyl]-2-hydroxy-2-(3-chlorophenyl)ethanamine]
inhibition in vivo at 12.5 µmol/kg [1, 7]: 17%

CC(Cc1ccc(CS(=O)(=O)C(C)C)cc1)NCC(O)c1cccc(C(F)(F)F)c1 (centres unmarked) [Example 12, N-[2-(4-Isopropylsulphonylmethylphenyl)-1-methylethyl] -2-hydroxy-2-(3-trifluoromethylphenyl)ethanamine]
Emax at 30 µg [2, 5]: 13% | Emax at 30 µg [2, 6]: 40%

CNCCSc1ccc(CC(C)NCC(O)c2cccc(Cl)c2)cc1 (centres unmarked) [Example 23, N-[2-(4-(2-Methylaminoethylthio)phenyl)-1-methlethyl]-2-hydrox-2-(3-chlorophenyl)ethanamine dihydrochloride]
inhibition in vivo at 1 µmol/kg [1, 8]: 16%

COC(=O)CCS(=O)(=O)c1ccc(CC(C)NCC(O)c2cccc(Cl)c2)cc1 (centres unmarked) [Example 10, N-[2-(4-{2-Carbomethoxyethylsulphonyl}phenyl)-1-methylethyl] -2-hydroxy-2-(3-chlorophenyl)ethanamine]
Emax at 30 µg [2, 5]: 31% | Emax at 30 µg [2, 6]: 91% | inhibition in vivo at 1 µmol/kg [1, 8]: 10%

CC(Cc1ccc(SC(C)C)cc1)NCC(O)c1cccc(Cl)c1 (centres unmarked) [Example 3, N-[2-(4-Isopropylthiophenyl)-1-methylethyl]-2-hydroxy-2-(3-chlorophenyl)ethanamine hydrochloride]
inhibition in vivo at 0.5 µmol/kg ([1]; 2 h): 28%

CC(Cc1ccc(S(=O)(=O)C(C)C)cc1)NCC(O)c1cccc(C(F)(F)F)c1 (centres unmarked) [Example 8, N-[2-(4-Isopropylsulphonylphenyl)-1-methylethyl]-2-hydroxy-2-(3-trifluoromethylphenyl)ethanamine]
Emax at 30 µg [2, 5]: 29% | Emax at 30 µg [2, 6]: 30%
